Key:
[1] = test system: lethal effect of 125 mgm/kg of pentylenetetrazole; assay: Pentetrazole antagonism test (anticonvulsive activity); format: in vivo, Mouse; albino mice (NMRI); details: po, 1 h; mouse; p.o.; 125 mgm/kg pentylenetetrazole i.p. one hour after test compound; values graphically determined
Procedure: (§1) 1. Pentetrazole antagonisim [M. I. Gluckmann, Curr. Ther. Res. 7, 721 (1965)]. The median effective dose (ED50) of the test compound is determined which cancels the lethal effect of 125 mgm/kg of pentylenetetrazole in 50% of the test animals; the pentylenetetrazole is administered intraperitoneally one hour after administration of the test compound.
(§2) Albino mice (NMRI) having a body weight of 20 to 25 gm or albino rats (FW-49) having a body weight of 140 to 200 gm were used as the test animals, and the test compounds were administered perorally as a suspension in olive oil by means of an esophageal sound.

[2] = Toxicity, median lethal dose (Litchfield and Wilcoxon); set-up: species or system Mouse; albino mice (NMRI); details: in vivo, po, mouse; for selectivity ratio: p.o., LD50 over pentylenetetrazole antagonism ED50, read-out: Therap. Index LD50:ED50
Procedure: 5. Toxicity [Litchfield and Wilcoxon, J. Pharmacol. Exp. Therap. 96, 99(1949)]. Determination of median lethal dose (LD50).
as §2

[3] = test system: warm-blooded animals, such as mice and rats; assay: Standard pharmacodynamic test methods (pentetrazole antagonism, electroshock, conflicting situation, fighting test); format: in vivo; details: in words
Procedure: The above-indicated pharmacodynamic properties of the compounds of this invention were ascertained by means of various standard test methods, namely the following:
as §1
2. Electroshock [J. E. P. Tomann et al, J. Neuro-Physiol. 9, 231 (1946)].
3. Conflicting Situation (Inhibition of Passive Avoidance Test) [J. Geller, Arch. Int. Pharmacodyn. 149,243 (1964)].
4. Fighting Test (Suppression of isolation-induced aggressiveness in mice) [Wirth et al; Arch. Int. Pharmcodyn. 115, 1-31 (1958)].
as §2

Row | SMILES | ED50 [1] [mg/kg] | LD50 [2] [mg/kg] | selectivity ratio [2] | effectiveness among the compounds of formula I [3]
1 | Cc1nnc2n1-c1sc(Br)cc1C(c1ccccc1Cl)=NC2 [A, 8-bromo-6-(o-chlorophenyl)-1-methyl-4H-s-triazolo [3,4c]thieno[2,3e]1,4-diazepine] | 0.07 | > 3500 | > 50000 | particularly effective
2 | Cc1nnc2n1-c1sc(Br)cc1C(c1ccccc1F)=NC2 [B, 8-bromo-6-(o-fluorophenyl)-1-methyl-4H-s-triazolo[3,4c]thieno[2,3e]1,4-diazepine] | 0.15 | > 3300 | > 22000 | 
3 | Cc1nnc2n1-c1sc(Br)cc1C(c1ccccc1Br)=NC2 [C, 8-bromo-6-(o-bromophenyl)-1-methyl-4H-s-triazolo[3,4c]thieno[2,33]1,4-diazepine] | 0.12 | > 3500 | > 29200 | particularly effective
4 | Cc1nnc2n1-c1sc(Br)cc1C(c1ccccc1)=NC2 [D, 8-bromo-6-phenyl-1-methyl-4H-s-triazolo[3,4]thieno[2,3e]1,4-diazepine] | 0.8 |  |  | 
5 | CCc1cc2c(s1)-n1c(C)nnc1CN=C2c1ccccc1Cl [E, 8-ethyl-6-(o-chlorophenyl)-1-methyl-4H-s-triazolo[3,4c]thieno[2,3e]-1,4-diazepine, reference compound] | 0.7 | 3070 | 4390 | 
6 | Cc1nnc2n1-c1sc(Cl)cc1C(c1ccccc1Cl)=NC2 [F, 8-chloro-6-(o-chlorophenyl)-1-methyl-4H-s-triazolo[3,4c]thieno[2,3e]1,4-diazepine, reference compound] | 1 | 2300 | 2300 | 
7 | Cc1nnc2n1-c1sc(Cl)cc1C(c1ccccc1Br)=NC2 [G, 8-chloro-6-(o-bromophenyl)-1-methyl-4H-s-triazolo[3,4c]thieno[2,3e]1,4-diazepine, reference compound] | 0.7 | 2200 | 3140 | 
8 | Cc1nnc2n1-c1sc(Cl)cc1C(c1ccccc1)=NC2 [H, 8-chloro-6-phenyl-1-methyl-4H-s-triazolo[3,4c]thieno[2,3e]1,4-diazepine, reference compound] | 3 |  |  | 
